In brackets after ≈: the same amount, converted by molar mass. Read-outs that look alike come from different tables or passages of the source.
How the values were obtained:
E.coli 7632 = assay: MIC by microbroth dilution method; type: cell-based
S.epidermis St 358 = assay: MIC by microbroth dilution method; type: cell-based, S. epidermidis
[1] = system: S.aureus ATCC 13709 Smith; assay: MIC by microbroth dilution method; type: cell-based
E.faecium ATCC 3567 = assay: MIC by microbroth dilution method; type: cell-based
MRSA 0-2657 = assay: MIC by microbroth dilution method; type: cell-based, S. aureus
S.epidermidis ATCC 14990 = assay: MIC by microbroth dilution method; type: cell-based
[2] = system: S.aureus ATCC 49775 PVL + ve; type: cell-based
MRSA 562 = assay: MIC by microbroth dilution method; type: cell-based, S. aureus
S.aureus ATCC 29213 = assay: MIC by microbroth dilution method; type: cell-based
MRSE ATCC 35983 = assay: MIC by microbroth dilution method; type: cell-based, S. epidermidis
E.faecalis ATCC 19433 = assay: MIC by microbroth dilution method; type: cell-based
[3] = system: S.aureus ATCC 700699 Mu50; assay: MIC by microbroth dilution method; type: cell-based
E.faecium 6A VRE = assay: MIC by microbroth dilution method; type: cell-based
E.faecium 06076 VRE = assay: MIC by microbroth dilution method; type: cell-based
[4] = system: E.faecalis ATCC 51299(VRE&HLAR); assay: MIC by microbroth dilution method; type: cell-based
E.faecalis SP 346 VRE = assay: MIC by microbroth dilution method; type: cell-based
MRSA ATCC BAA 39 = assay: MIC by microbroth dilution method; type: cell-based, S. aureus
E.faecium ATCC 19434 = assay: MIC by microbroth dilution method; type: cell-based
MRSA DB 00026 = assay: MIC by microbroth dilution method; type: cell-based, S. aureus
MRSE ATCC 35984 = assay: MIC by microbroth dilution method; type: cell-based, S. epidermidis
E.faecalis ATCC 29212 = assay: MIC by microbroth dilution method; type: cell-based
[5] = system: S.aureus 13709 LNZ mutant; type: cell-based
S.epidermidis ATCC 12228 = assay: MIC by microbroth dilution method; type: cell-based
E.faecium 134 VRE = assay: MIC by microbroth dilution method; type: cell-based
[6] = system: Mycobacterium tuberculosis H37Rv; assay: Anti-TB activity, colorimetric resazurin microtiter assay; type: cell-based; details: read-out: MIC, Minimum Inhibitory Concentration (90%)
S.aureus2 (PVL + ve) = type: cell-based, S. aureus
MRSA 252 BAA 1720 = assay: MIC by microbroth dilution method; type: cell-based, S. aureus
S.aureus DB00026 = assay: MIC by microbroth dilution method; type: cell-based
E.faecium ATCC 49224 = assay: MIC by microbroth dilution method; type: cell-based
E.faecium ATCC 35667 = assay: MIC by microbroth dilution method; type: cell-based
MRSA ATCC 43300 = assay: MIC by microbroth dilution method; type: cell-based, S. aureus
[7] = system: S.aureus ATCC Newman 25904; assay: MIC by microbroth dilution method; type: cell-based
[8] = Mycobacterium tuberculosis, H37RV

SMILES | MIC (E.coli 7632) [µg/mL] | MIC (S.epidermis St 358) [µg/mL] | MIC [1] [µg/mL] | MIC (E.faecium ATCC 3567) [µg/mL] | MIC (MRSA 0-2657) [µg/mL] | MIC (S.epidermidis ATCC 14990) [µg/mL] | MIC [2] [µg/mL] | MIC (MRSA 562) [µg/mL] | MIC (S.aureus ATCC 29213) [µg/mL] | MIC (MRSE ATCC 35983) [µg/mL] | MIC (E.faecalis ATCC 19433) [µg/mL] | MIC [3] [µg/mL] | MIC (E.faecium 6A VRE) [µg/mL] | MIC (E.faecium 06076 VRE) [µg/mL] | MIC [4] [µg/mL] | MIC (E.faecalis SP 346 VRE) [µg/mL] | MIC (MRSA ATCC BAA 39) [µg/mL] | MIC (E.faecium ATCC 19434) [µg/mL] | MIC (MRSA DB 00026) [µg/mL] | MIC (MRSE ATCC 35984) [µg/mL] | further results
CC(C)(C)OC(=O)NC[C@H]1CN(c2cc(F)c(N3CC[Si](C)(C)CC3)c(F)c2)C(=O)O1 [NDS-10031, (S)-tert-butyl((3-(4-(4,4-dimethyl-1,4-azasilinan-1-yl)-3,5-difluorophenyl)-2-oxooxazolidin-5-yl)methyl)carbamate] | > 32 | > 16 | > 16 | > 16 | > 16 | > 16 | > 16 | > 16 | > 16 | > 16 | > 16 | > 16 | > 16 | > 16 | > 16 | > 16 | > 16 | > 16 | > 16 | > 16 | MIC (E.faecalis ATCC 29212): > 16 µg/mL; MIC [5]: > 16 µg/mL; MIC (S.epidermidis ATCC 12228): > 16 µg/mL; MIC (E.faecium 134 VRE): > 16 µg/mL
CO[C@H]1/C=C/O[C@@]2(C)Oc3c(C)c(O)c4c(O)c(c(/C=N/N5CCN(C)CC5)c(O)c4c3C2=O)NC(=O)/C(C)=C\C=C\[C@H](C)[C@H](O)[C@@H](C)[C@@H](O)[C@@H](C)[C@H](OC(C)=O)[C@@H]1C [Rifampicin, reference compound] |  |  |  |  |  |  |  |  |  |  |  |  |  |  |  |  |  |  |  |  | MIC ([6]; inhibition of Mycobacterium tuberculosis H37Rv growth, 7H9-OADC media, 37° C., visual readout): 0.3 µg/mL (≈ 0.365 µM)
C[Si]1(C)CCN(c2ccc(N3C[C@H](Cn4ccnn4)OC3=O)cc2F)CC1 [NDS-10060, (R)-5-((1H-1,2,3-triazol-1-yl)methyl)-3-(4-(4,4-dimethyl-1,4-azasilinan-1-yl)-3-fluorophenyl)oxazolidin-2-one] | 16 (≈ 41.1 µM) | 16 (≈ 41.1 µM) | 16 (≈ 41.1 µM) | > 32 | 16 (≈ 41.1 µM) | 8 (≈ 20.5 µM) | 16 (≈ 41.1 µM) | 16 (≈ 41.1 µM) | 32 (≈ 82.2 µM) | 32 (≈ 82.2 µM) | 16 (≈ 41.1 µM) | 32 (≈ 82.2 µM) | 32 (≈ 82.2 µM) | 32 (≈ 82.2 µM) | 16 (≈ 41.1 µM) | 16 (≈ 41.1 µM) | 16 (≈ 41.1 µM) | 32 (≈ 82.2 µM) | 16 (≈ 41.1 µM) | 16 (≈ 41.1 µM) | MIC (S.aureus2 (PVL + ve)): 16 µg/mL (≈ 41.1 µM); MIC (MRSA 252 BAA 1720): 32 µg/mL (≈ 82.2 µM); MIC [6, 8]: 50 µg/mL (≈ 128 µM); MIC (S.aureus DB00026): 16 µg/mL (≈ 41.1 µM); MIC (E.faecium ATCC 49224): 32 µg/mL (≈ 82.2 µM); MIC (E.faecium ATCC 35667): 32 µg/mL (≈ 82.2 µM); MIC (MRSA ATCC 43300): 32 µg/mL (≈ 82.2 µM); MIC (E.faecalis ATCC 29212): 8 µg/mL (≈ 20.5 µM); MIC [5]: 32 µg/mL (≈ 82.2 µM); MIC [7]: 16 µg/mL (≈ 41.1 µM); MIC (S.epidermidis ATCC 12228): > 32 µg/mL; MIC (E.faecium 134 VRE): 16 µg/mL (≈ 41.1 µM)
C[Si]1(C)CCN(c2c(F)cc(N3C[C@H](CN)OC3=O)cc2F)CC1 [NDS-10054, (S)-5-(aminomethyl)-3-(4-(4,4-dimethyl-1,4-azasilinan-1-yl)-3,5-difluorophenyl)oxazolidin-2-one] | > 32 | 16 (≈ 45 µM) | 16 (≈ 45 µM) | 8 (≈ 22.5 µM) | 16 (≈ 45 µM) | 16 (≈ 45 µM) | 16 (≈ 45 µM) | 16 (≈ 45 µM) | 16 (≈ 45 µM) | 32 (≈ 90 µM) | 16 (≈ 45 µM) | 16 (≈ 45 µM) | 8 (≈ 22.5 µM) | 16 (≈ 45 µM) | 16 (≈ 45 µM) | 16 (≈ 45 µM) | 16 (≈ 45 µM) | 16 (≈ 45 µM) | 16 (≈ 45 µM) | 16 (≈ 45 µM) | MIC (S.aureus2 (PVL + ve)): 16 µg/mL (≈ 45 µM); MIC (MRSA 252 BAA 1720): 16 µg/mL (≈ 45 µM); MIC [6, 8]: 25 µg/mL (≈ 70.3 µM); MIC (S.aureus DB00026): 16 µg/mL (≈ 45 µM); MIC (E.faecium ATCC 49224): 16 µg/mL (≈ 45 µM); MIC (E.faecium ATCC 35667): 8 µg/mL (≈ 22.5 µM); MIC (MRSA ATCC 43300): 16 µg/mL (≈ 45 µM); MIC (E.faecalis ATCC 29212): 16 µg/mL (≈ 45 µM); MIC [5]: 32 µg/mL (≈ 90 µM); MIC [7]: 16 µg/mL (≈ 45 µM); MIC (S.epidermidis ATCC 12228): 32 µg/mL (≈ 90 µM); MIC (E.faecium 134 VRE): 16 µg/mL (≈ 45 µM)
COC(=O)NC[C@H]1CN(c2ccc(N3CC[Si](C)(C)CC3)c(F)c2)C(=O)O1 [NDS-10061, (S)-methyl((3-(4-(4,4-dimethyl-1,4-azasilinan-1-yl)-3-fluorophenyl)-2-oxooxazolidin-5-yl)methyl)carbamate] | 8 (≈ 20.2 µM) | 32 (≈ 80.9 µM) | 8 (≈ 20.2 µM) | 32 (≈ 80.9 µM) | 16 (≈ 40.5 µM) | 8 (≈ 20.2 µM) | 16 (≈ 40.5 µM) | 16 (≈ 40.5 µM) | 16 (≈ 40.5 µM) | 16 (≈ 40.5 µM) | 16 (≈ 40.5 µM) | 32 (≈ 80.9 µM) | 32 (≈ 80.9 µM) | 32 (≈ 80.9 µM) | 32 (≈ 80.9 µM) | 16 (≈ 40.5 µM) | 16 (≈ 40.5 µM) | 32 (≈ 80.9 µM) | 16 (≈ 40.5 µM) | 8 (≈ 20.2 µM) | MIC (S.aureus2 (PVL + ve)): 16 µg/mL (≈ 40.5 µM); MIC (MRSA 252 BAA 1720): 16 µg/mL (≈ 40.5 µM); MIC [6, 8]: 25 µg/mL (≈ 63.2 µM); MIC (S.aureus DB00026): 8 µg/mL (≈ 20.2 µM); MIC (E.faecium ATCC 49224): 16 µg/mL (≈ 40.5 µM); MIC (E.faecium ATCC 35667): 16 µg/mL (≈ 40.5 µM); MIC (MRSA ATCC 43300): > 32 µg/mL; MIC (E.faecalis ATCC 29212): 8 µg/mL (≈ 20.2 µM); MIC [5]: 32 µg/mL (≈ 80.9 µM); MIC [7]: 16 µg/mL (≈ 40.5 µM); MIC (S.epidermidis ATCC 12228): > 32 µg/mL; MIC (E.faecium 134 VRE): 16 µg/mL (≈ 40.5 µM)
